These results are taken from ChEMBL document CHEMBL1141483, “Design and synthesis of 1,3-diarylurea derivatives as selective cyclooxygenase (COX-2) inhibitors” (Bioorg Med Chem Lett, 2008).

By IC50 is commonly meant the point on the concentration scale where inhibition reaches its midpoint. A low value points to inhibition by little substance.

This experiment has as its target T1, Prostaglandin G/H synthase 1 (Ovis aries, UniProt P05979).
T1 sequence (P05979 whole entry): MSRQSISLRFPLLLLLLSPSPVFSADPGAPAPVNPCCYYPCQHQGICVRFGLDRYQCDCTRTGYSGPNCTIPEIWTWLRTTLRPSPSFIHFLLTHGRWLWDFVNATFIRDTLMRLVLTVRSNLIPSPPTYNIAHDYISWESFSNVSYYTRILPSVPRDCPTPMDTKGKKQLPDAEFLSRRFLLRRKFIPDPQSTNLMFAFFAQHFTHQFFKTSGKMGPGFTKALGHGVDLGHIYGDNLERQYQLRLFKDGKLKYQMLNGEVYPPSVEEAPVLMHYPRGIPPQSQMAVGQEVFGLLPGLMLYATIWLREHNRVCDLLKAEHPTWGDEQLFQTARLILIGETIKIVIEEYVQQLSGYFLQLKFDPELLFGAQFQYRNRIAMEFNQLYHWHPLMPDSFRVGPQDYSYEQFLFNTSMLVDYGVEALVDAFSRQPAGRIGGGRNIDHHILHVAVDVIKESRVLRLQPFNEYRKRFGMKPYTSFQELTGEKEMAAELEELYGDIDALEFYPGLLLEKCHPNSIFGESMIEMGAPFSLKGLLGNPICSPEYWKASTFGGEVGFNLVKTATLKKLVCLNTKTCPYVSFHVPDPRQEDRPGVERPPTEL
Description: Inhibition of ovine COX1 by chemiluminescent assay
In turn, `CS(=O)(=O)c1ccc(NC(=O)Nc2ccc(Cl)cc2)cc1` came in with a 50% inhibitory concentration (IC50) of 21.5 µM.

`CS(=O)(=O)c1ccc(NC(=O)Nc2ccc(F)cc2)cc1` showed a 50% inhibitory concentration (IC50) of 21.8 µM. `COc1ccc(NC(=O)Nc2ccc(S(C)(=O)=O)cc2)cc1` displayed an IC50 of 22.4 µM. The IC50 values of the last two compounds are within 1.5-fold of each other.

`Cc1ccc(NC(=O)Nc2ccc(S(C)(=O)=O)cc2)cc1` came in with an IC50 of 12.5 µM. In the case of `CS(=O)(=O)c1ccc(NC(=O)Nc2ccccc2)cc1`, inhibition was half-maximal at 9.2 µM (IC50).
